The species entered for the assay is Rattus norvegicus. Put plainly: Binding of [3H]diprenorphine to rat brain membranes was evaluated and the dissociation constant (KD) was determined. Details: species or system Membrane.

Kd data for 1 molecule are collected here from ChEMBL document CHEMBL1124775 (J Med Chem, 1990).

`C=CCN1CC[C@]23c4c5ccc(O)c4O[C@H]2C(=O)CC[C@@]3(O)[C@H]1C5` [NALOXONE]: the Kd was 10 nM.

The term Kd denotes the concentration at which binding is half-saturated. High values mean weaker binding, low ones tighter binding.
